What all share (format): cell-based
One assay relates to Saccharomyces servazzii. Kind of assay: In vitro susceptibility of contaminant yeast by minimal inhibition concentrations. The following applies: MicroGARD 200 at 1% (w/v); allyl isothiocyanate 0.01%; FP 1000-D1 at 1% (w/v). As to the method:
The dominating yeast in the control batch was traced back to Pichia spp., likely to be the added DCS 1175 strain. At what time point the contaminant yeast occurred is not known. The contaminant yeast. Saccharomyces servazzii, was tested in vitro for susceptibility towards MicroGARD® 200, allyl isothiocyanate, and the FP1000 variant FP 1000-D1 by determination of minimal inhibition concentrations (data not shown) The results confirmed a tolerance of the yeast against MicroGARD® 200 at 1% (w/v) and susceptibility towards allyl isothiocyanate 0.01% and FP 1000-D1 at 1% (w/v), respectively. Consequently, although eventually present in all batches, Saccharomyces servazzii could have been suppressed in the preserved batches, but was able to outgrow in batch D. The high acetic acid concentration in the unpreserved batch A and the competing yeast flora could have caused suppression of the contaminant in those samples.

Assay [1] relates to Aspergillus niger DCS 1115. The assay can be described thus: Minimal Inhibition Concentration Assay (MIC), 96 well liquid based. The following applies: DCS1115, in blend FP1000S, read-out: actual presence of the individual compound in the blend at MIC level. From the text: (§1) The target strains used for assessment of antimicrobial activity are isolates of different origin e.g. food spoilage isolates, spoilage organisms provided by a customer, national strain collections (e.g. DSMZ, ATCC) collected in the in house Danisco Culture Collection (DCS) (Danisco, Brabrand, Denmark), maintained at −86′C in suitable broth containing glycerol 50% (v/v). The strains were chosen to represent Gram negative and fungal strains. All species used were aerobic. Before each experiment, stock cultures were propagated through two consecutive growth cycles in suitable media and temperature. The overnight cultures are diluted in saline solution to obtain working cultures.
(§2) Mould spore inoculums were prepared as follows: approx. 2 ml of sterile demineralised water was used to wash the spores off an out-grown mould (minimum 5 day old plate). This suspension is transferred to a sterile container.
(§3) Yeast and mould strains were incubated at 25° C., and bacterial isolates were grown at 30° C. under aerobic conditions depending on the preferred conditions for the particular strain (Method no AP-002).
(§4) The Minimal Inhibition Concentration Assay (MIC) is a 96 well liquid based assay developed for an automated assessment system and performed essentially as described in (Method no AP-003). Indicator strains (table 2) are tested for inhibition of growth by the putative anti-microbial substances and combinations thereof, using a wide concentration range (depending on the compound), in this case by performing a ⅔-dilution series of each sample at pH 6.0 (±0.2)). From a 10 fold diluted overnight culture 5 μl of each strain was inoculated in one well corresponding to an approximate inoculation density of 10^3-10^4 cells/well. Media used were YM-broth for yeast and moulds and CASO-broth for bacterial isolates. Strains were incubated at 24° C. or 30° C. for 24 to 48 hours depending on the strain. The increase in optical density (O.D.) after incubation is compared to a growth control to estimate whether the substance has a bacteriostatic effect and to determine the MIC. […]

The subject of assay [2] is Aspergillus versicolor DCS 1069. Described as above. The following applies: DCS1069, in blend FP1000S, read-out: actual presence of the individual compound in the blend at MIC level.
From the text: as §1, §2, §3, §4

Assay [3] deals with Aspergillus parasiticus DCS 709. Described as above. The following applies: DCS709, in blend FP1000S, read-out: actual presence of the individual compound in the blend at MIC level.
From the text: as §1, §2, §3, §4

Assay [4] deals with Pseudomonas fluorescens DCS 428. Described as above. The following applies: DCS428, in blend FP1000S, read-out: actual presence of the individual compound in the blend at MIC level.
From the text: as §1, §3
(§5) The Minimal Inhibition Concentration Assay (MIC) is a 96 well liquid based assay developed for an automated assessment system and performed essentially as described in (Method no AP-003). Indicator strains (table 2) are tested for inhibition of growth by the putative anti-microbial substances and combinations thereof, using a wide concentration range (depending on the compound), in this case by performing a ⅔-dilution series of each sample at pH 6.0 (±0.2)). From a 10 fold diluted overnight culture 5 μl of each strain was inoculated in one well corresponding to an approximate inoculation density of 10^3-10^4 cells/well. Media used were YM-broth for yeast and moulds and CASO-broth for bacterial isolates. Strains were incubated at 24° C. or 30° C. for 24 to 48 hours depending on the strain. The increase in optical density (O.D.) after incubation is compared to a growth control to estimate whether the substance has a bacteriostatic effect and to determine the MIC. MIC is defined as the lowest concentration of the antimicrobial that will inhibit measurable growth. A bacteriostatic effect is defined as the OD620 being less than or equal to 20% of the growth control after incubation.
(§6) To obtain more accurate estimates of the values, an Excel macro was used to process the raw data. The macro scans the raw data and finds the two concentrations that lie on either side of the O.D. 20% threshold value. It then pinpoints the actual concentration where the O.D. crosses the threshold, using linear correlation. All data are presented as the mean values of duplicates for each microorganism.
(§7) The MIC assays were run on a fully automated assessment system consisting of a 9-hotel Cytohotel (Thermo), a Biomek FxP pipetting robot (Beckman Coulter), an ORCA robotic arm on a 3 meter rails (Beckman Coulter), 2 Synergy HT spectrophotometers (Biotek), a Cytomat 6001 incubator (Thermo) and a Cytomat 2C incubator (Thermo).

The test system of a further assay is Pichia anomala DCS 603. The assay is described as above. The following applies: Hansenula anomala, DCS603; in blend FP1000S; read-out: actual presence of the individual compound in the blend at MIC level.
From the text: as §1, §3, §5, §6, §7

Assay [5] relates to Rhodotorula glutinis DCS 606. The description is as above. The following applies: DCS606, in blend FP1000S, read-out: actual presence of the individual compound in the blend at MIC level.
From the text: as §1, §3, §5, §6, §7

In the next assay the test system is Escherichia coli DCS 495. The assay is described as above. The following applies: DCS495, read-out: actual presence of the individual compound in the blend at MIC level.
From the text: as §1, §3, §5, §6, §7

For assay [6], the system named is Debaryomyces hansenii DCS 605. The description is as above. The following applies: DCS605, in blend FP1000S, read-out: actual presence of the individual compound in the blend at MIC level.
From the text: as §1, §3, §5, §6, §7

Assay [7] has as its system Salmonella enteritidis DCS 1152. The assay is described as above. The following applies: Salmonella enterica, in blend FP1000S, read-out: actual presence of the individual compound in the blend at MIC level.
From the text: as §1, §3, §5, §6, §7

Assay [8] concerns Saccharomyces cerevisiae DCS 599. The description is as above. The following applies: DCS599, in blend FP1000S, read-out: actual presence of the individual compound in the blend at MIC level.
From the text: as §1, §3, §5, §6, §7

Assay [9] deals with Candida parapsilosis DCS 1090. The description is as above. The following applies: Lodderomyces parapsilosis, DCS1090; in blend FP1000S; read-out: actual presence of the individual compound in the blend at MIC level.
From the text: as §1, §3, §5, §6, §7

Assay [10] deals with Candida tropicalis DCS 604. The assay is described as above. The following applies: DCS604, in blend FP1000S, read-out: actual presence of the individual compound in the blend at MIC level.
From the text: as §1, §3, §5, §6, §7

For `C=CCN=C=S` [AITC, allyl isothiocyanate], the “in vitro susceptibility of contaminant yeast (data not shown)” value in the assay with Saccharomyces servazzii is recorded as “susceptibility”. For the same compound, the MIC (as a rule, the lowest concentration that inhibits growth of the organism) is 106 µg/mL in [1]; 143 µg/mL in [2]; 38 µg/mL in assay [3]; 412 µg/mL in [4]; 380 µg/mL in the assay with Pichia anomala DCS 603; 200 µg/mL in [5]. Moreover, the MIC is over 700 µg/mL in the assay with Escherichia coli DCS 495; 213 µg/mL in [6]; over 700 µg/mL in assay [7]; 196 µg/mL in [8]; 67 µg/mL in assay [9]; 235 µg/mL in [10].

Values taken from patent publication US20130287918A1, “MICROBICIDAL COMPOSITION” (DUPONT NUTRITION DIOSCIENCES APS, priority 2010, published 2013).
